Consider 30 compounds from patent US10730882B2, “2-aminoquinazoline derivatives as P70S6 kinase inhibitors” (SENTINEL ONCOLOGY LIMITED, priority 2015, dated 2020).

SMILES strings stand for the structures.

Sequence of p70S6K (h) (P23443 whole entry): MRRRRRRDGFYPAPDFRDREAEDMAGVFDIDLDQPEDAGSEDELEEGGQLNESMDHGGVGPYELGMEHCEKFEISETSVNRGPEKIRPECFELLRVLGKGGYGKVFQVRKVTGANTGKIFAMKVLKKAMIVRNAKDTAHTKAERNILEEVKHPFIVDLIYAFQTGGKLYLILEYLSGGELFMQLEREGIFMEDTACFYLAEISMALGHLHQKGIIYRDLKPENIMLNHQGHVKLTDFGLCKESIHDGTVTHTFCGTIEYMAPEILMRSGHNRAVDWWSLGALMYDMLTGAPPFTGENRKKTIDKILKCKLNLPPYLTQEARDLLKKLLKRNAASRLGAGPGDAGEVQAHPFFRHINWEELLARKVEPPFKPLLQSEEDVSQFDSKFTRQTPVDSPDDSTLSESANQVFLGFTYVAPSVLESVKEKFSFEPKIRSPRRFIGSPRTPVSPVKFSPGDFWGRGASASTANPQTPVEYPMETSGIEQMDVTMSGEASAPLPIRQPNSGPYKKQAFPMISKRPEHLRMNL

Tested on in one series: not listed separately
Nature of the series: in vivo cassette mouse model: brain and plasma concentrations following oral dosing. The settings on record: brain and plasma, male CD-1 mice, 2.5 mg/kg per compound, read-out: (b) Brain:Plasma ratio at 3 hours. How it is done:
(b) Evaluation of Brain and Plasma Concentrations in an In Vivo Cassette Mouse Model
The compounds of this invention were evaluated in an in vivo cassette mouse model to determine brain and plasma concentrations following oral dosing. This is an industry-standard and recognised means to assess brain penetration of small molecules (for recent literature article, refer to: in vitro permeability analysis, pharmacokinetic and brain distribution study in mice of imperatorin, isoimperatorin and cnidilin in Radix Angelicae Dahuricae, Fitoterapia, Volume 85, March 2013, Pages 144-153). It is also recognised that higher brain concentrations (and higher ratios of brain:plasma concentration) lead to greater exposure in the brain—this is clearly advantageous if the brain is the site of action.
For a single cassette study, male CD-1 mice were used (n=3 per timepoint, three timepoints: 1.0 hr, 3.0 hr and 8.0 hr).
5 compounds were dosed PO per cassette (dose level 2.5 mg/kg per compound, dose conc. 0.25 mg/ml, dose volume 10.0 ml/kg).
Formulation used to solubilize compounds: 10% DMSO/90% hydroxypropyl-β-cyclodextrin (20% w/v aqueous)
Sampling was terminal and plasma and brain matrices were generated. To prepare plasma samples, protein was precipitated using acetonitrile. To prepare brain samples, homogenisation and protein precipitation was performed with acetonitrile. Samples were analysed using HPLC-TOF MS using electrospray ionisation.
The brain and plasma concentrations and brain-plasma ratios observed for the compounds tested are set out in the table below.
In the case of `C[C@@H](Nc1ncc2cc(-c3ncnc4[nH]ncc34)ccc2n1)c1ccccc1F` [Example 28, [(R)-1-(2-Fluoro-phenyl)-ethyl]-[6-(1H-pyrazolo[3,4-d]pyrimidin-4-yl)-quinazolin-2-yl]-amine], the Kp at 3 h is 2.6.

Take `C[C@@H](Nc1ncc2cc(-c3ncnc4[nH]ncc34)ccc2n1)c1ccc(F)c(F)c1` [Example 19, [(R)-1-(3,4-Difluoro-phenyl)-ethyl]-[6-(1H-pyrazolo[3,4-d]pyrimidin-4-yl)-quinazolin-2-yl]-amine]: the Kp at 3 h is 4.

The same series, now with this note: brain, male CD-1 mice, 2.5 mg/kg per compound, read-out: (b) Brain conc. at 3 hours.
`C[C@@H](Nc1ncc2cc(-c3ncnc4[nH]ncc34)ccc2n1)c1ccccc1F` [Example 28, [(R)-1-(2-Fluoro-phenyl)-ethyl]-[6-(1H-pyrazolo[3,4-d]pyrimidin-4-yl)-quinazolin-2-yl]-amine]: the concentration at 3 h was determined as 1.07 µM.

Turning to `C[C@@H](Nc1ncc2cc(-c3ncnc4[nH]ncc34)ccc2n1)c1ccc(F)c(F)c1` [Example 19, [(R)-1-(3,4-Difluoro-phenyl)-ethyl]-[6-(1H-pyrazolo[3,4-d]pyrimidin-4-yl)-quinazolin-2-yl]-amine], the concentration at 3 h came out at 2.42 µM.

Staying with this series, now noted: plasma, male CD-1 mice, 2.5 mg/kg per compound, read-out: (b) Plasma conc. at 3 hours.
On to `C[C@@H](Nc1ncc2cc(-c3ncnc4[nH]ncc34)ccc2n1)c1ccccc1F` [Example 28, [(R)-1-(2-Fluoro-phenyl)-ethyl]-[6-(1H-pyrazolo[3,4-d]pyrimidin-4-yl)-quinazolin-2-yl]-amine], for which the concentration at 3 h amounted to 0.42 µM.

Consider `C[C@@H](Nc1ncc2cc(-c3ncnc4[nH]ncc34)ccc2n1)c1ccc(F)c(F)c1` [Example 19, [(R)-1-(3,4-Difluoro-phenyl)-ethyl]-[6-(1H-pyrazolo[3,4-d]pyrimidin-4-yl)-quinazolin-2-yl]-amine], for which the concentration at 3 h was determined as 0.6 µM.

The next series deals with p70S6K (h) (Homo sapiens (Human), UniProt P23443). Nature of the series: p70S6K (h) kinase assay (radiometric, [γ-33P-ATP]). It counts as biochemical. Particulars: read-out: (a) p70S6K1 IC50. The method, then:
(a) Determination of p70S6 Inhibitory Activity
The ability of compounds of the invention to inhibit P70S6 kinase may be determined using the protocol below.
20 mM MOPS, 1 mM EDTA, 0.01% Brij-35, 5% Glycerol, 0.1% b-mercaptoethanol, 1 mg/mL BSA
In a final reaction volume of 25 μL, p70S6K (h) (5-10 mU) is incubated with 8 mM MOPS pH 7.0, 0.2 mM EDTA, 100 μM KKRNRTLTV, 10 mM Mg acetate and [γ-33P-ATP](specific activity approx. 500 cpm/pmol, concentration as required). The reaction is initiated by the addition of the MgATP mix. After incubation for 40 minutes at room temperature, the reaction is stopped by the addition of 5 μL of a 3% phosphoric acid solution. 10 μL of the reaction mixture is then spotted onto a P30 filtermat and washed three times for 5 minutes in 75 mM phosphoric acid and once in methanol prior to drying and scintillation counting.
With `CN(C)CCN(Cc1ccccc1)c1ncc2cc(-c3ncnc4[nH]ncc34)ccc2n1` [Example 16, N-Benzyl-N′,N′-dimethyl-N-[6-(1H-pyrazolo[3,4-d]pyrimidin-4-yl)-quinazolin-2-yl]-ethane-1,2-diamine], the IC50 was 0.106 µM.

Consider `c1ccc(CNc2ncc3cc(-c4ncnc5[nH]ncc45)ccc3n2)cc1` [Example 21, Benzyl-[6-(1H-pyrazolo[3,4-d]pyrimidin-4-yl)-quinazolin-2-yl]-amine], for which the half-inhibitory concentration (IC50) stood at 0.071 µM.

For the compound `c1ccc(CN(C[C@H]2COCCN2)c2ncc3cc(-c4ncnc5[nH]ncc45)ccc3n2)cc1` [Example 18, Benzyl-(S)-1-morpholin-3-ylmethyl-[6-(1H-pyrazolo[3,4-d]pyrimidin-4-yl)-quinazolin-2-yl]-amine], the IC50 amounted to 0.025 µM.

Consider `C[C@@H](Nc1ncc2cc(-c3ncnc4[nH]ncc34)ccc2n1)c1ccccc1O` [Example 35, 2-{(R)-1-[6-(1H-Pyrazolo[3,4-d]pyrimidin-4-yl)-quinazolin-2-ylamino]-ethyl}-phenol], for which the half-inhibitory concentration (IC50) is 0.02 µM.

As for `Clc1cccc(CNc2ncc3cc(-c4ncnc5[nH]ncc45)ccc3n2)c1` [Example 11, (3-Chlorobenzyl)-[6-(1H-pyrazolo[3,4-d]pyrimidin-4-yl)-quinazolin-2-yl]-amine], the IC50 is 0.145 µM.

Regarding `C[C@@H](Nc1ncc2cc(-c3ncnc4[nH]cnc34)ccc2n1)c1ccccc1` [Example 20, ((R)-1-Phenyl-ethyl)-[6-(9H-purin-6-yl)-quinazolin-2-yl]-amine], the IC50 stood at 0.167 µM.

`CN(Cc1ccccc1)c1ncc2cc(-c3ncnc4[nH]ncc34)ccc2n1` [Example 7, Benzyl-[6-(1H-pyrazolo[3,4-d]pyrimidin-4-yl)-quinazolin-2-yl]-methylamine]: the half-inhibitory concentration (IC50) was determined as 0.033 µM.

Consider `OC[C@@H](Nc1ncc2cc(-c3ncnc4[nH]ncc34)ccc2n1)c1ccccc1` [Example 5, ((S)-2-Hydroxy-1-phenyl-ethyl)-[6-(1H-pyrazolo[3,4-d]pyrimidin-4-yl)-quinazolin-2-yl]-amine], for which the IC50 was found to be 0.024 µM.

Regarding `C[C@@H](Nc1ncc2cc(-c3ncnc4[nH]ncc34)ccc2n1)c1c(F)cccc1F` [Example 33, [(R)-1-(2,6-Difluoro-phenyl)-ethyl]-[6-(1H-pyrazolo[3,4-d]pyrimidin-4-yl)-quinazolin-2-yl]-amine], the IC50 came out at 0.028 µM.

On to `Cc1n[nH]c2ncnc(-c3ccc4nc(N[C@H](C)c5ccccc5)ncc4c3)c12` [Example 22, [6-(3-Methyl-1H-pyrazolo[3,4-d]pyrimidin-4-yl)-quinazolin-2-yl]-((R)-1-phenyl-ethyl)-amine], for which the IC50 is 0.131 µM.

Consider `C[C@@H](Nc1ncc2ccc(-c3ncnc4[nH]ncc34)cc2n1)c1ccccc1` [Example 12, ((R)-1-Phenyl-ethyl)-[7-(1H-pyrazolo[3,4-d]pyrimidin-4-yl)-quinazolin-2-yl]-amine], for which the IC50 is over 3 µM.

`C[C@@H](Nc1ncc2cc(-c3ncnc4[nH]ncc34)ccc2n1)c1cccc(Cl)c1` [Example 2, ((R)-1-(3-Chloro-phenyl)-ethyl)-[6-(1H-pyrazolo[3,4-d]pyrimidin-4-yl)-quinazolin-2-yl]-amine]: the IC50 came to 0.03 µM.

Consider `C[C@@H](Nc1ncc2cc(-c3ncnc4[nH]ncc34)ccc2n1)c1ccccc1F` [Example 28, [(R)-1-(2-Fluoro-phenyl)-ethyl]-[6-(1H-pyrazolo[3,4-d]pyrimidin-4-yl)-quinazolin-2-yl]-amine], for which the IC50 was determined as 0.015 µM.

`Fc1ccc(CNc2ncc3cc(-c4ncnc5[nH]ncc45)ccc3n2)cc1F` [Example 25, (3,4-Difluoro-benzyl)-[6-(1H-pyrazolo[3,4-d]pyrimidin-4-yl)-quinazolin-2-yl]-amine]: the half-maximal inhibitory concentration (IC50) worked out at 0.049 µM.

Take `C[C@@H](Nc1ncc2cc(-c3ncnc4[nH]ncc34)ccc2n1)c1ccc(F)c(F)c1` [Example 19, [(R)-1-(3,4-Difluoro-phenyl)-ethyl]-[6-(1H-pyrazolo[3,4-d]pyrimidin-4-yl)-quinazolin-2-yl]-amine]: the half-inhibitory concentration (IC50) stood at 0.01 µM.

As to `C[C@H](Nc1ncc2cc(-c3ncnc4[nH]ncc34)ccc2n1)c1ccccc1` [Example 29, ((S)-1-Phenyl-ethyl)-[6-(1H-pyrazolo[3,4-d]pyrimidin-4-yl)-quinazolin-2-yl]-amine], the half-maximal inhibitory concentration (IC50) is over 3 µM.

With `C[C@@H](Nc1ncc2cc(-c3ccnc4[nH]ncc34)ccc2n1)c1ccccc1` [Example 13, ((R)-1-Phenyl-ethyl)-[6-(1H-pyrazolo[3,4-b]pyridin-4-yl)-quinazolin-2-yl]-amine], the IC50 is 0.043 µM.

As to `C[C@@H](Nc1ncc2cc(-c3ncnc4[nH]cc(C#N)c34)ccc2n1)c1ccccc1` [Example 34, 4-[2-((R)-1-Phenyl-ethylamino)-quinazolin-6-yl]-7H-pyrrolo[2,3-d]pyrimidine-5-carbonitrile], the IC50 was found to be 0.346 µM.

Turning to `C[C@@H](Nc1ncc2cc(-c3ncnc4[nH]ncc34)ccc2n1)c1cccc(NS(C)(=O)=O)c1` [Example 30, N-(3-{(R)-1-[6-(1H-Pyrazolo[3,4-d]pyrimidin-4-yl)-quinazolin-2-ylamino]-ethyl}-phenyl)-methanesulfonamide], the IC50 is 0.023 µM.

As for `Fc1ccccc1CNc1ncc2cc(-c3ncnc4[nH]ncc34)ccc2n1` [Example 24, (2-Fluoro-benzyl)-[6-(1H-pyrazolo[3,4-d]pyrimidin-4-yl)-quinazolin-2-yl]-amine], the 50% inhibitory concentration (IC50) stood at 0.204 µM.

Take `CN(Cc1ccc(F)cc1)c1ncc2cc(-c3ncnc4[nH]ncc34)ccc2n1` [Example 6, (4-Fluorobenzyl)-[6-(1H-pyrazolo[3,4-d]pyrimidin-4-yl)-quinazolin-2-yl]-methylamine]: the IC50 is 0.147 µM.

For the compound `CS(=O)(=O)Nc1cccc(CNc2ncc3cc(-c4ncnc5[nH]ncc45)ccc3n2)c1` [Example 26, N-(3-{[6-(1H-Pyrazolo[3,4-d]pyrimidin-4-yl)-quinazolin-2-ylamino]-methyl}-phenyl)-methanesulfonamide], the half-inhibitory concentration (IC50) was determined as 0.067 µM.

`C[C@@H](Nc1ncc2cc(-c3ncnc4[nH]ccc34)ccc2n1)c1ccccc1` [Example 14, ((R)-1-Phenyl-ethyl)-[6-(7H-pyrrolo[2,3-d]pyrimidin-4-yl)-quinazolin-2-yl]-amine]: the IC50 is 0.057 µM.

Turning to `COc1cccc(CNc2ncc3cc(-c4ncnc5[nH]ncc45)ccc3n2)c1` [Example 23, (3-Methoxy-benzyl)-[6-(1H-pyrazolo[3,4-d]pyrimidin-4-yl)-quinazolin-2-yl]-amine], the half-maximal inhibitory concentration (IC50) is 0.118 µM.

Regarding `OCC[C@@H](Nc1ncc2cc(-c3ncnc4[nH]ncc34)ccc2n1)c1ccccc1` [Example 31, (R)-3-Phenyl-3-[6-(1H-pyrazolo[3,4-d]pyrimidin-4-yl)-quinazolin-2-ylamino]-propan-1-ol], the half-inhibitory concentration (IC50) turned out to be 0.01 µM.

In the case of `Fc1ccc(CNc2ncc3cc(-c4ncnc5[nH]ncc45)ccc3n2)cc1` [Example 9, (4-Fluorobenzyl)-[6-(1H-pyrazolo[3,4-d]pyrimidin-4-yl)-quinazolin-2-yl]-amine], the 50% inhibitory concentration (IC50) was 0.055 µM.

Take `C[C@H](c1ccccc1)N(C)c1ncc2cc(-c3ncnc4[nH]ncc34)ccc2n1` [Example 8, ((R)-1-Phenyl-ethyl)-[6-(1H-pyrazolo[3,4-d]pyrimidin-4-yl)-quinazolin-2-yl]-methylamine]: the half-maximal inhibitory concentration (IC50) worked out at 0.108 µM.

As to `c1ccc(CN(C[C@@H]2COCCN2)c2ncc3cc(-c4ncnc5[nH]ncc45)ccc3n2)cc1` [Example 17, Benzyl-(R)-1-morpholin-3-ylmethyl-[6-(1H-pyrazolo[3,4-d]pyrimidin-4-yl)-quinazolin-2-yl]-amine], the IC50 came to 0.11 µM.

Take `COc1cccc([C@@H](C)Nc2ncc3cc(-c4ncnc5[nH]ncc45)ccc3n2)c1` [Example 27, [(R)-1-(3-Methoxy-phenyl)-ethyl]-[6-(1H-pyrazolo[3,4-d]pyrimidin-4-yl)-quinazolin-2-yl]-amine]: the IC50 was 0.041 µM.

In the case of `C[C@@H](Nc1ncc2cc(-c3ccnc4[nH]ccc34)ccc2n1)c1ccccc1` [Example 15, ((R)-1-Phenyl-ethyl)-[6-(1H-pyrrolo[2,3-b]pyridin-4-yl)-quinazolin-2-yl]-amine], the half-inhibitory concentration (IC50) turned out to be 0.097 µM.

The term IC50 denotes the concentration that inhibits the measured activity by half.
